# Earlier results as cited in publication PMC5590095 (Chemical Science, 2017).
# Tested on: tubulin
substance,measurement,value
Celogentin C,inhibitory activity against tubulin polymerization,inhibitory activity against tubulin polymerization
